These results are taken from patent US12410171B2, “Tropomyosin receptor kinase (TRK) degradation compounds and methods of use” (Cullgen (Shanghai), Inc., priority 2020, dated 2025).

In this assay the target is T1, TPM3-TRKA fusion protein (Homo sapiens, UniProt P04629).
T1 construct: The resulted chimeric proteins always retain the kinase domain of TRK proteins; TPM3 (fusion partner, N-terminal part of tropomyosin alpha-3, P06753); endogenous in cells; host or cells: KM12 colon cancer cells; the other entry of the earlier key: TPM3 (P06753, Tropomyosin alpha-3 chain)
T1 sequence (P04629 with tags, fused parts or gaps): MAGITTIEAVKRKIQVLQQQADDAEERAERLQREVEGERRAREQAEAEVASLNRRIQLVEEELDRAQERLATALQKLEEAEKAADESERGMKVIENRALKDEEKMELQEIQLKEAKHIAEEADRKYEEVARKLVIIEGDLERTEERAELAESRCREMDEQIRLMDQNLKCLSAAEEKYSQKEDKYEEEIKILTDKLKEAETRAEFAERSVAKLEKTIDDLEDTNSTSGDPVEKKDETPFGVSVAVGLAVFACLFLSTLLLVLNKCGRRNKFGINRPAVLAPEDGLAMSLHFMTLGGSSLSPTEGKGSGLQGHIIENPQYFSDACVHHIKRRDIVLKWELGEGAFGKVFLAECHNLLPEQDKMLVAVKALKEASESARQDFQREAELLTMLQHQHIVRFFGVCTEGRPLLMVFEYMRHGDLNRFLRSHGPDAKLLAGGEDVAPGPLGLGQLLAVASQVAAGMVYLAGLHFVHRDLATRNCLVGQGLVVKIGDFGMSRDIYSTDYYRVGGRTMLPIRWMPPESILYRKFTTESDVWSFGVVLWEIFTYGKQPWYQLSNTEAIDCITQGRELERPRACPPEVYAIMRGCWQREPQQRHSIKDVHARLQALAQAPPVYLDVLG
Nature of the assay: TPM3-TRKA fusion protein levels in KM12 cells (Western blot). As to conditions: 16 h; TPM3-TRKA degradation in KM12 cells at 10 nM compound, category of percentage degradation; read-out: Degradation (at 10 nM). Type of assay: cell-based. In a few lines:
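KM12 colon cancer cells were treated with DMSO or compounds at 0.1–100 nM, 0.4–30 nM or other stated concentrations for 4, 8–16 or 16 h. RIPA lysates were BCA-normalized and resolved by SDS-PAGE. TPM3-TRKA was detected by chemiluminescent Western blot, with bands quantified by densitometry.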

`O=C(CN1CCN(c2cccc(-c3cnc4ccc(N5CCC[C@@H]5c5cccc(F)c5)nn34)n2)CC1)NCCOCCOCCNc1ccc2c(c1)C(=O)N(C1CCC(=O)NC1=O)C2=O` (stereo partly drawn) [TR-134, N-(2-(2-(2-((2-(2,6-dioxopiperidin-3-yl)-1,3-dioxoisoindolin-5-yl)amino)ethoxy)ethoxy)ethyl)-2-(4-(6-(6-((R)-2-(3-fluorophenyl)pyrrolidin-1-yl)imidazo[1,2-b]pyridazin-3-yl)pyridin-2-yl)piperazin-1-yl)acetamide]: the percent degradation of TPM3-TRKA protein at 0.01 µM was over 80%.

Consider `O=C1CCC(N2C(=O)c3ccc(NCCOCCOCCOCCOCCOCCC(=O)N4CCN(c5ccc(C(=O)Nc6n[nH]c7ccc(Cc8cc(F)cc(F)c8)cc67)c(NC6CCOCC6)c5)CC4)cc3C2=O)C(=O)N1` (stereo not drawn) [TR-137, N-(5-(3,5-Difluorobenzyl)-1H-indazol-3-yl)-4-(4-(1-((2-(2,6-dioxopiperidin-3-yl)-1,3-dioxoisoindolin-5-yl)amino)-3,6,9, 12, 15-pentaoxaoctadecan-18-oyl)piperazin-1-yl)-2-((tetrahydro-2H-pyran-4-yl)amino)benzamide], for which the percent degradation of TPM3-TRKA protein at 0.01 µM is over 80%.

Regarding `O=C1CCC(N2C(=O)c3ccc(NCCOCCOCCC(=O)N4CCN(c5ccc(C(=O)Nc6n[nH]c7ccc(Cc8cc(F)cc(F)c8)cc67)c(NC6CCOCC6)c5)CC4)cc3C2=O)C(=O)N1` (stereo not drawn) [TR-141, N-(5-(3,5-Difluorobenzyl)-1H-indazol-3-yl)-4-(4-(3-(2-(2-((2-(2,6-dioxopiperidin-3-yl)-1,3-dioxoisoindolin-5-yl)amino)ethoxy)ethoxy)propanoyl)piperazin-1-yl)-2-((tetrahydro-2H-pyran-4-yl)amino)benzamide], the percent degradation of TPM3-TRKA protein at 0.01 µM was over 80%.

As to `O=C1CCC(N2C(=O)c3ccc(NCCCCC(=O)N4CCN(c5ccc(C(=O)Nc6n[nH]c7ccc(Cc8cc(F)cc(F)c8)cc67)c(NC6CCOCC6)c5)CC4)cc3C2=O)C(=O)N1` (stereo not drawn) [TR-142, N-(5-(3,5-Difluorobenzyl)-1H-indazol-3-yl)-4-(4-(5-((2-(2,6-dioxopiperidin-3-yl)-1,3-dioxoisoindolin-5-yl)amino)pentanoyl)piperazin-1-yl)-2-((tetrahydro-2H-pyran-4-yl)amino)benzamide], the percent degradation of TPM3-TRKA protein at 0.01 µM was over 80%.

As to `O=C1CCC(N2C(=O)c3ccc(NCCOCCC(=O)N4CCN(c5ccc(C(=O)Nc6n[nH]c7ccc(Cc8cc(F)cc(F)c8)cc67)c(NC6CCOCC6)c5)CC4)cc3C2=O)C(=O)N1` (stereo not drawn) [TR-143], the percent degradation of TPM3-TRKA protein at 0.01 µM was over 80%.

For `O=C1CCC(N2C(=O)c3ccc(NCC(=O)N4CCN(c5ccc(C(=O)Nc6n[nH]c7ccc(Cc8cc(F)cc(F)c8)cc67)c(NC6CCOCC6)c5)CC4)cc3C2=O)C(=O)N1` (stereo not drawn) [TR-144, N-(5˜ (3,5-Difluorobenzyl)-1H-indazol-3-yl)-4-(4-((2˜ (2,6-dioxopiperidin-3-yl)-1,3-dioxoisoindolin-5-yl)glycyl)piperazin-1-yl)-2-((tetrahydro-2H-pyran-4-yl)amino)benzamide], the percent degradation of TPM3-TRKA protein at 0.01 µM was over 80%.

`O=C1CCC(N2C(=O)c3ccc(NCCC(=O)N4CCN(c5ccc(C(=O)Nc6n[nH]c7ccc(Cc8cc(F)cc(F)c8)cc67)c(NC6CCOCC6)c5)CC4)cc3C2=O)C(=O)N1` (stereo not drawn) [TR-145, N—(S-(3,5-Difluorobenzyl)-1H-indazol-3-yl)-4-(4-(3-((2-(2,6-dioxopiperidin-3-yl)-1,3-dioxoisoindolin-S-yl)amino)propanoyl)piperazin-1-yl)-2-((tetrahydro-2H-pyran-4-yl)amino)benzamide]: the percent degradation of TPM3-TRKA protein at 0.01 µM was over 80%.

Regarding `O=C1CCC(N2C(=O)c3ccc(NCCOCCOCCOCCC(=O)N4CCN(c5ccc(C(=O)Nc6n[nH]c7ccc(Cc8cc(F)cc(F)c8)cc67)c(NC6CCOCC6)c5)CC4)cc3C2=O)C(=O)N1` (stereo not drawn) [TR-146, N-(5-(3,5-Difluorobenzyl)-1H-indazol-3-yl)-4-(4-(3-(2-(2-(2-((2-(2,6-dioxopiperidin-3-yl)-1,3-dioxoisoindolin-5-yl)amino)ethoxy)ethoxy)ethoxy)propanoyl)piperazin-1-yl)-2-((tetrahydro-2/-pyran-4-yl)amino)benzamide], the percent degradation of TPM3-TRKA protein at 0.01 µM is over 80%.

With `O=C(CN1CCN(c2ccc(C(=O)Nc3n[nH]c4ccc(Cc5cc(F)cc(F)c5)cc34)c(NC3CCOCC3)c2)CC1)NCCCCCCNc1cccc2c1C(=O)N(C1CCC(=O)NC1=O)C2=O` (stereo not drawn) [TR-147, N—(S-(3,5-Difluorobenzyl)-1H-indazol-3-yl)-4-(4-(2-((6-((2-(2,6-dioxopiperidin-3-yl)-1,3-dioxoisoindolin-4-yl)amino)hexyl)amino)-2-oxoethyl)piperazin-1-yl)-2-((tetrahydro-2H-pyran-4-yl)amino)benzamide], the percent degradation of TPM3-TRKA protein at 0.01 µM was over 80%.

Take `O=C(CN1CCN(c2ccc(C(=O)Nc3n[nH]c4ccc(Cc5cc(F)cc(F)c5)cc34)c(NC3CCOCC3)c2)CC1)NCCCCCNc1cccc2c1C(=O)N(C1CCC(=O)NC1=O)C2=O` (stereo not drawn) [TR-149, N-(5-(3,5-Difluorobenzyl)-1H-indazol-3-yl)-4-(4-(2-((5-((2-(2,6-dioxopiperidin-3-yl)-1,3-dioxoisoindolin-4-yl)amino)pentyl)amino)-2-oxoethyl)piperazin-1-yl)-2-((tetrahydro-2H-pyran-4-yl)amino)benzamide]: the percent degradation of TPM3-TRKA protein at 0.01 µM was over 80%.

On to `O=C(CN1CCN(c2ccc(C(=O)Nc3n[nH]c4ccc(Cc5cc(F)cc(F)c5)cc34)c(NC3CCOCC3)c2)CC1)NCCOCCOCCOCCOCCNc1cccc2c1C(=O)N(C1CCC(=O)NC1=O)C2=O` (stereo not drawn) [TR-150, N-(5-(3,5-Difluorobenzyl)-1H-indazol-3-yl)-4-(4-(17-((2˜ (2,6-dioxopiperidin-3-yl)-1,3-dioxoisoindolin-4-yl)amino)-2-oxo-6,9,12,15-tetraoxa-3-azaheptadecyl)piperazin-1-yl)-2˜ ((tetrahydro-2H-pyran-4-yl)amino)benzamide], for which the percent degradation of TPM3-TRKA protein at 0.01 µM was over 80%.

For `O=C(CN1CCN(c2ccc(C(=O)Nc3n[nH]c4ccc(Cc5cc(F)cc(F)c5)cc34)c(NC3CCOCC3)c2)CC1)NCCOCCNc1cccc2c1C(=O)N(C1CCC(=O)NC1=O)C2=O` (stereo not drawn) [TR-151, N-(5-(3,5-Difluorobenzyl)-1H-indazol-3-yl)-4-(4-(2-((2-(2-((2-(2,6-dioxopiperidin-3-yl)-1,3-dioxoisoindolin-4-yl)amino)ethoxy)ethyl)amino)-2-oxoethyl)piperazin-1-yl)-2-((tetrahydro-2H-pyran-4-yl)amino)benzamide], the percent degradation of TPM3-TRKA protein at 0.01 µM is over 80%.

`O=C(CN1CCN(c2ccc(C(=O)Nc3n[nH]c4ccc(Cc5cc(F)cc(F)c5)cc34)c(NC3CCOCC3)c2)CC1)NCCCNc1cccc2c1C(=O)N(C1CCC(=O)NC1=O)C2=O` (stereo not drawn) [TR-152, N-(5-(3,5-Difluorobenzyl)-1H-indazol-3-yl)-4-(4-(2-((3-((2-(2,6-dioxopiperidin-3,3-yl)-1,3-dioxoisoindolin-4-yl)amino)propyl)amino)-2-oxocthyl)piperazin-1-yl)-2-((tetrahydro-2H-pyran-4-yl)amino)benzamide]: the percent degradation of TPM3-TRKA protein at 0.01 µM is over 80%.

As for `O=C(CN1CCN(c2ccc(C(=O)Nc3n[nH]c4ccc(Cc5cc(F)cc(F)c5)cc34)c(NC3CCOCC3)c2)CC1)NCCOCCOCCNc1cccc2c1C(=O)N(C1CCC(=O)NC1=O)C2=O` (stereo not drawn) [TR-153, N-(5-(3,5-Difluorobenzyl)-1H-indazol-3-yl)-4-(4-(2-((2-(2-(2-((2-(2,6-dioxopiperidin-3-yl)-1,3-dioxoisoindolin-4-yl)amino)ethoxy)ethoxy)ethyl)amino)-2-oxoethyl)piperazin-1-yl)-2-((tetrahydro-2H-pyran-4-yl)amino)benzamide], the percent degradation of TPM3-TRKA protein at 0.01 µM was over 80%.

For `O=C(CN1CCN(c2ccc(C(=O)Nc3n[nH]c4ccc(Cc5cc(F)cc(F)c5)cc34)c(NC3CCOCC3)c2)CC1)NCCCCNc1cccc2c1C(=O)N(C1CCC(=O)NC1=O)C2=O` (stereo not drawn) [TR-155, N-(5-(3,5-Difluorobenzyl)-1H-indazol-3-yl)-4-(4-(2-((4-((2-(2,6-dioxopiperidin-3-yl)-1,3-dioxoisoindolin-4-yl)amino)butyl)amino)-2-oxoethyl)piperazin-1-yl)-2-((tetrahydro-2/-pyran-4-yl)amino)benzamide], the percent degradation of TPM3-TRKA protein at 0.01 µM is over 80%.

As for `O=C(CN1CCN(c2ccc(C(=O)Nc3n[nH]c4ccc(Cc5cc(F)cc(F)c5)cc34)c(NC3CCOCC3)c2)CC1)NCCCCNc1ccc2c(c1)C(=O)N(C1CCC(=O)NC1=O)C2=O` (stereo not drawn) [TR-156, N-(5-(3,5-Difluorobenzyl)-1H-indazol-3-yl)-4-(4-(2-((4-((2-(2,6-dioxopiperidin-3-yl)-1,3-dioxoisoindolin-S-yl)amino)butyl)amino)-2-oxoethyl)piperazin-1-yl)-2-((tetrahydro-2H-pyran-4-yl)amino)benzamide], the percent degradation of TPM3-TRKA protein at 0.01 µM is over 80%.

Regarding `O=C(CN1CCN(c2ccc(C(=O)Nc3n[nH]c4ccc(Cc5cc(F)cc(F)c5)cc34)c(NC3CCOCC3)c2)CC1)NCCCCCCCNc1ccc2c(c1)C(=O)N(C1CCC(=O)NC1=O)C2=O` (stereo not drawn) [TR-157, N-(5-(3,5-Difluorobenzyl)-1H-indazol-3-yl)-4-(4-(2-((7-((2-(2,6-dioxopiperidin-3-yl)-1,3-dioxoisoindolin-5-yl)amino)heptyl)amino)-2-oxoethyl)piperazin-1-yl)-2-((tetrahydro-2H-pyran-4-yl)amino)benzamide], the percent degradation of TPM3-TRKA protein at 0.01 µM was over 80%.

Regarding `O=C(CN1CCN(c2ccc(C(=O)Nc3n[nH]c4ccc(Cc5cc(F)cc(F)c5)cc34)c(NC3CCOCC3)c2)CC1)NCCOCCOCCOCCOCCNc1ccc2c(c1)C(=O)N(C1CCC(=O)NC1=O)C2=O` (stereo not drawn) [TR-160, N-(5-(3,5-Difluorobenzyl)-1H-indazol-3-yl)-4-(4-(17-((2-(2,6-dioxopiperidin-3-yl)-1,3-dioxoisoindolin-S-yl)amino)-2-oxo-6,9,12,15-tetraoxa-3-azaheptadecyl)piperazin-1-yl)-2-((tetrahydro-2H-pyran-4-yl)amino)benzamide], the percent degradation of TPM3-TRKA protein at 0.01 µM is over 80%.
